Measurements reported in the NIST ThermoML archive (doi:10.1021/acs.jced.5b00242).
Numbers after ± are expanded uncertainties.

Experiments:
[1] = Liquid; for viscosity: 101 kPa; for mass density: 101.33 kPa, Vibrating tube method
[2] = refractive index (Na D-line) (dimensionless); details: 101 kPa, Liquid, Standard Abbe refractometry

Row | Compound | mass density ([1]; 293.15 K) | mass density ([1]; 298.15 K) | mass density ([1]; 303.15 K) | mass density ([1]; 308.15 K) | mass density ([1]; 313.15 K) | mass density ([1]; 318.15 K) | mass density ([1]; 323.15 K) | mass density ([1]; 328.15 K) | mass density ([1]; 333.15 K) | mass density ([1]; 338.15 K) | mass density ([1]; 343.15 K) | mass density ([1]; 348.15 K) | mass density ([1]; 353.15 K) | refractive index ([2]; 293.15 K) | refractive index ([2]; 298.15 K) | refractive index ([2]; 303.15 K) | refractive index ([2]; 308.15 K) | refractive index ([2]; 313.15 K) | refractive index ([2]; 318.15 K) | refractive index ([2]; 323.15 K) | other results
1 | CCn1cc[n+](C)c1.NCC(=O)[O-] [1-ethyl-3-methylimidazolium ammonioacetate] | 1164.3 ± 10 kg/m3 | 1161.2 ± 10 kg/m3 | 1158.1 ± 10 kg/m3 | 1155 ± 10 kg/m3 | 1152 ± 10 kg/m3 | 1149 ± 10 kg/m3 | 1146 ± 10 kg/m3 | 1143 ± 10 kg/m3 | 1139.9 ± 10 kg/m3 | 1136.9 ± 10 kg/m3 | 1133.8 ± 9.9 kg/m3 | 1130.7 ± 9.9 kg/m3 | 1127.4 ± 9.9 kg/m3 | 1.52134 ± 0.00087 | 1.51997 ± 0.00087 | 1.5186 ± 0.00087 | 1.51724 ± 0.00087 | 1.51585 ± 0.00087 | 1.5145 ± 0.00087 | 1.51313 ± 0.00087 | viscosity ([1]; 293.15 K, Stabinger viscometer): 240.18 ± 14 mPa·s; viscosity ([1]; 298.15 K, Stabinger viscometer): 171.97 ± 8.2 mPa·s; viscosity ([1]; 303.15 K, Stabinger viscometer): 126.19 ± 5.1 mPa·s; viscosity ([1]; 308.15 K, Stabinger viscometer): 95.04 ± 3.3 mPa·s; viscosity ([1]; 313.15 K, Stabinger viscometer): 73.5 ± 2.3 mPa·s; viscosity ([1]; 318.15 K, Stabinger viscometer): 57.66 ± 1.6 mPa·s; viscosity ([1]; 323.15 K, Stabinger viscometer): 46.21 ± 1.4 mPa·s; viscosity ([1]; 328.15 K, Stabinger viscometer): 37.66 ± 1.1 mPa·s; viscosity ([1]; 333.15 K, Stabinger viscometer): 31.24 ± 0.91 mPa·s; viscosity ([1]; 338.15 K, Stabinger viscometer): 26.08 ± 0.76 mPa·s; viscosity ([1]; 343.15 K, Stabinger viscometer): 22.11 ± 0.65 mPa·s; viscosity ([1]; 348.15 K, Stabinger viscometer): 18.95 ± 0.55 mPa·s; viscosity ([1]; 353.15 K, Stabinger viscometer): 16.45 ± 0.48 mPa·s; refractive index ([2]; 328.15 K): 1.51179 ± 0.00087; refractive index ([2]; 333.15 K): 1.51041 ± 0.00087; refractive index ([2]; 338.15 K): 1.50904 ± 0.00087; refractive index ([2]; 343.15 K): 1.50769 ± 0.00087; refractive index ([2]; 348.15 K): 1.50637 ± 0.00087; refractive index ([2]; 353.15 K): 1.50495 ± 0.00087
2 | CC[n+]1ccn(C)c1.N[C@@H](CO)C(=O)[O-] [3-ethyl-1-methyl-1H-imidazolium L-serinate] | 1206.8 ± 14 kg/m3 | 1203.7 ± 14 kg/m3 | 1200.5 ± 14 kg/m3 | 1197.3 ± 14 kg/m3 | 1194 ± 14 kg/m3 | 1190.9 ± 14 kg/m3 | 1187.8 ± 14 kg/m3 | 1184.7 ± 14 kg/m3 | 1181.7 ± 14 kg/m3 | 1178.7 ± 14 kg/m3 | 1175.7 ± 14 kg/m3 | 1172.8 ± 14 kg/m3 | 1169.7 ± 14 kg/m3 | 1.52699 ± 0.0041 | 1.52565 ± 0.0041 | 1.52429 ± 0.0041 | 1.52294 ± 0.0041 | 1.52159 ± 0.0041 | 1.52022 ± 0.0041 | 1.51887 ± 0.0041 | viscosity ([1]; 293.15 K, Stabinger Viscometer): 3796.8 ± 560 mPa·s; viscosity ([1]; 298.15 K, Stabinger Viscometer): 2235.5 ± 290 mPa·s; viscosity ([1]; 303.15 K, Stabinger Viscometer): 1376.2 ± 160 mPa·s; viscosity ([1]; 308.15 K, Stabinger Viscometer): 882.82 ± 88 mPa·s; viscosity ([1]; 313.15 K, Stabinger Viscometer): 588.27 ± 51 mPa·s; viscosity ([1]; 318.15 K, Stabinger Viscometer): 405.12 ± 30 mPa·s; viscosity ([1]; 323.15 K, Stabinger Viscometer): 287.6 ± 18 mPa·s; viscosity ([1]; 328.15 K, Stabinger Viscometer): 209.91 ± 11 mPa·s; viscosity ([1]; 333.15 K, Stabinger Viscometer): 157.29 ± 7.5 mPa·s; viscosity ([1]; 338.15 K, Stabinger Viscometer): 119.86 ± 5 mPa·s; viscosity ([1]; 343.15 K, Stabinger Viscometer): 93.36 ± 3.5 mPa·s; viscosity ([1]; 348.15 K, Stabinger Viscometer): 74.03 ± 2.5 mPa·s; viscosity ([1]; 353.15 K, Stabinger Viscometer): 59.91 ± 1.9 mPa·s; refractive index ([2]; 328.15 K): 1.51755 ± 0.0041; refractive index ([2]; 333.15 K): 1.5162 ± 0.0041; refractive index ([2]; 338.15 K): 1.51486 ± 0.0041; refractive index ([2]; 343.15 K): 1.51353 ± 0.0041; refractive index ([2]; 348.15 K): 1.5122 ± 0.0041; refractive index ([2]; 353.15 K): 1.51084 ± 0.0041
